Reference: patent publication US20100173888A1 (Pfizer Inc, priority 2008, published 2010)

Target: human recombinant H-PGDS (Homo sapiens, UniProt O60760)
Assay: Slightly modified fluorescence intensity h-PGDS TBA enzyme assay (1:40,000 enzyme, 40 second reaction, 1/2 log dilutions, top concentration typically 10 μM)
Type: biochemical
Conditions: slightly modified assay: 1:40,000 human recombinant H-PGDS
Method: Fluoresecence Intensity h-PGDSTBA Enzyme Assay
Prostaglandin D Synthase (PGDS) converts the substrate prostaglandin H2 (PGH2) to prostaglandin D2. The depletion of PGH2 was measured via an Fe(II) reduction of the remaining PGH2 to malondialdehyde (MDA) and 12-HHT. The enzyme assay is based on the quantitative formation of a fluorescent complex from the non-fluorescent compounds MDA and 2-thiobarbituric acid (TBA), substantially as described in U.S. patent application publication US-2004/152148 by Lombardt.
Examples 6-8, 11a-16, 23, 26-47, 49-103, 105-113, 115-118 and 126-128 were tested in a slightly modified assay: The enzyme assay (30 μls during biological process) contained 100 mM Trizma pH 8.0, 100 μM MgCl2, 0.1 mg/ml IgG Rabbit serum, 5.0 μM PGH2 (Cayman; ethanol solution, #17020), 2.5 mM L-Glutathione (Sigma; reduced form #G4251), 1:40,000 human recombinant H-PGDS (from 1 mg/ml), 0.5% DMSO and inhibitor (varying concentration). 3 μls of diluted inhibitor (dissolved in DMSO) was plated into a 384-well assay plate followed by a 24 μl addition of an enzyme solution containing h-PGDS, Trizma, MgCl2, IgG and L-Glutathione. After pre-incubation of inhibitor and enzyme solution for 10 minutes at room temperature, the reaction was initiated with a 3 μl addition of substrate solution in 10 mM HCl. The reaction was terminated after 40 second by the addition of 3 μl stop buffer containing FeCl2 and citric acid. After addition of 45 μls of TBA plates were heated for one hour in a 70° C. oven. Plates were cooled at room temperature overnight and read on a plate reader the next day with excitation @ 530 nm and emission @ 560 nm. IC50' s of inhibitors were calculated with a 4-parameter fit using 11 inhibitor concentrations in duplicate with ½ log serial dilutions. Controls on each plate included no inhibitor (zero % effect) and an inhibitor 500-fold in excess of its' IC50 (100% effect). The highest inhibitor concentration tested was typically 10 μM.

Chain of human recombinant H-PGDS (O60760 whole entry): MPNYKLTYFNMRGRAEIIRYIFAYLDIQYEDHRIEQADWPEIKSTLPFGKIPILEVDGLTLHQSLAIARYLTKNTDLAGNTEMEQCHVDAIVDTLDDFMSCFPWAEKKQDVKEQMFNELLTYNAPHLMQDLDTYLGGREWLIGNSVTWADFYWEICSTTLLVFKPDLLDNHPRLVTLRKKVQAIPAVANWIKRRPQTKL

IC50 [nM]	Structure (SMILES)
3.72	O=C(N[C@H]1CCC[C@@H](C(=O)N2CCC(O)CC2)C1)c1ccc(-c2cccc(F)c2)nc1 (relative stereo) [Example 28, 6-(3-Fluorophenyl)-N-{cis-3-[(4-hydroxypiperidin-1-yl)carbonyl]cyclohexyl}nicotinamide]
5.02	O=C(N[C@H]1CCC[C@@H](C(=O)N2CCCC2)C1)c1ccc(-c2cccc(F)c2)nc1 (relative stereo) [Example 29, 6-(3-Fluorophenyl)-N-[cis-3-(pyrrolidin-1-ylcarbonyl)cyclohexyl]nicotinamide]
25.6	O=C(N[C@H]1CCC[C@@H](C(=O)NCc2ccccc2)C1)c1ccc(-c2cccc(F)c2)nc1 (relative stereo) [Example 30, N-[cis-3-(Benzylcarbamoyl)cyclohexyl]-6-(3-fluorophenyl)nicotinamide]
10.8	CN(C)C(=O)[C@H]1CCC[C@@H](NC(=O)c2ccc(-c3cccc(F)c3)nc2)C1 (relative stereo) [Example 31, N-[cis-3-(Dimethyicarbamoyl)cyclohexyl]-6-(3-fluorophenyl)nicotinamide]
37.9	CCN(C)C(=O)[C@@H]1CCC[C@H](NC(=O)c2ccc(-c3cccc(F)c3)nc2)C1 (relative stereo) [Example 32, N-{cis-3-[Ethyl(methyl)carbamoyl]cyclohexyl}-6-(3-fluorophenyl)nicotinamide]
10	O=C(N[C@H]1CCC[C@@H](C(=O)NC2CCCC2)C1)c1ccc(-c2cccc(F)c2)nc1 (relative stereo) [Example 33, N-[cis-3-(Cyclopentylcarbamoyl)cyclohexyl]-6-(3-fluorophenyl)nicotinamide]
8.32	CC(C)NC(=O)[C@@H]1CCC[C@H](NC(=O)c2ccc(-c3cccc(F)c3)nc2)C1 (relative stereo) [Example 34, 6-(3-Fluorophenyl)-N-[cis-3-(isopropylcarbamoyl)cyclohexyl]nicotinamide]
8.29	CN1CCN(C(=O)[C@@H]2CCC[C@H](NC(=O)c3ccc(-c4cccc(F)c4)nc3)C2)CC1 (relative stereo) [Example 35, 6-(3-Fluorophenyl)-N-{cis-3-[(4-methylpiperazin-1-yl)carbonyl]cyclohexyl}nicotinamide]
8.34	O=C(N[C@H]1CCC[C@@H](C(=O)N2CCOCC2)C1)c1ccc(-c2cccc(F)c2)nc1 (relative stereo) [Example 36, 6-(3-Fluorophenyl)-N-[cis-3-(morpholin-4-ylcarbonyl)cyclohexyl]nicotinamide]
25.4	CNCCN(C)C(=O)[C@@H]1CCC[C@H](NC(=O)c2ccc(-c3cccc(F)c3)nc2)C1 (relative stereo) [Example 37, 6-(3-Fluorophenyl)-N-[cis-3-{methyl[2-(methylamino)ethyl]carbamoyl}cyclohexyl]nicotinamide]
8.43	CC(C)(C)NC(=O)[C@@H]1CCC[C@H](NC(=O)c2ccc(-c3cccc(F)c3)nc2)C1 (relative stereo) [Example 38, N-[cis-3-(tert-Butylcarbamoyl)cyclohexyl]-6-(3-fluorophenyl)nicotinamide]
4.26	CN(Cc1ccccc1)C(=O)[C@@H]1CCC[C@H](NC(=O)c2ccc(-c3cccc(F)c3)nc2)C1 (relative stereo) [Example 39, N-{cis-3-[Benzyl(methyl)carbamoyl]cyclohexyl}-6-(3-fluorophenyl)nicotinamide]
9	CCN(CC)C(=O)[C@@H]1CCC[C@H](NC(=O)c2ccc(-c3cccc(F)c3)nc2)C1 (relative stereo) [Example 40, N-[cis-3-(Diethylcarbamoyl)cyclohexyl]-6-(3-fluorophenyl)nicotinamide]
10.2	O=C(N[C@H]1CCC[C@@H](C(=O)N2CCNCC2)C1)c1ccc(-c2cccc(F)c2)nc1 (relative stereo) [Example 42, 6-(3-Fluorophenyl)-N-[cis-3-(piperazin-1-ylcarbonyl)cyclohexyl]nicotinamide]
14.4	O=C(N[C@H]1CCC[C@@H](C(=O)N2CCN(C3CC3)CC2)C1)c1ccc(-c2cccc(F)c2)nc1 (relative stereo) [Example 43, N-{cis-3-[(4-Cyclopropylpiperazin-1-yl)carbonyl]cyclohexyl}-6-(3-fluorophenyl)nicotinamide]
9.3	O=C(N[C@H]1CCC[C@@H](C(=O)NCCCO)C1)c1ccc(-c2cccc(F)c2)nc1 (relative stereo) [Example 64E, 6-(3-fluorophenyl)-N-{cis-3-[(3-hydroxypropyl)carbamoyl]cyclohexyl}nicotinamide]

IC50 [nM]	Structure (SMILES)
16.8	CN(C)CCCNC(=O)[C@@H]1CCC[C@H](NC(=O)c2ccc(-c3cccc(F)c3)nc2)C1 (relative stereo) [Example 64F, N-[cis-3-{[3-(dimethylamino)propyl]carbamoyl}cyclohexyl]-6-(3-fluorophenyl)nicotinamide]
11.1	O=C(N[C@H]1CCC[C@@H](C(=O)NCCN2CCCCC2)C1)c1ccc(-c2cccc(F)c2)nc1 (relative stereo) [Example 64I, 6-(3-fluorophenyl)-N-{cis-3-[(2-piperidin-1-ylethyl)carbamoyl]cyclohexyl}nicotinamide]
19.6	CCN1CCC(CNC(=O)[C@@H]2CCC[C@H](NC(=O)c3ccc(-c4cccc(F)c4)nc3)C2)C1 (relative stereo) [Example 64J, N-[cis-3-{[(1-ethylpyrrolidin-3-yl)methyl]carbamoyl}cyclohexyl]-6-(3-fluorophenyl)nicotinamide]
509	CCN1CCC(NC(=O)[C@@H]2CCC[C@H](NC(=O)c3ccc(-c4cccc(F)c4)nc3)C2)CC1 (relative stereo) [Example 64M, N-{cis-3-[(1-ethylpiperidin-4-yl)carbamoyl]cyclohexyl}-6-(3-fluorophenyl)nicotinamide]
69.2	O=C(NC1CCC(N2CCOCC2)CC1)c1ccc(-c2cccc(F)c2)nc1 (single isomer, unassigned) [Example 49, 6-(3-Fluorophenyl)-N-(4-morpholin-4-ylcyclohexyl)nicotinamide]
5.76	O=C(NC1CCC(N2CCOCC2)CC1)c1ccc(-c2cccc(F)c2)nc1 (single isomer, unassigned) [Example 50, 6-(3-Fluorophenyl)-N-(4-morpholin-4-ylcyclohexyl)nicotinamide]
172	CN1CCN(C2CCC(NC(=O)c3ccc(-c4cccc(F)c4)nc3)CC2)CC1 (single isomer, unassigned) [Example 51, 6-(3-Fluorophenyl)-N-[-4-(4-methylpiperazin-1-yl)cyclohexyl]nicotinamide]
39.1	CN1CCN(C2CCC(NC(=O)c3ccc(-c4cccc(F)c4)nc3)CC2)CC1 (single isomer, unassigned) [Example 52, 6-(3-Fluorophenyl)-N-[-4-(4-methylpiperazin-1-yl)cyclohexyl]nicotinamide]
87.2	COCCNC1CCC(NC(=O)c2ccc(-c3cccc(F)c3)nc2)CC1 (single isomer, unassigned) [Example 54, 6-(3-Fluorophenyl)-N-{4-[(2-methoxyethyl)amino]cyclohexyl}nicotinamide]
18.5	COCCNC1CCC(NC(=O)c2ccc(-c3cccc(F)c3)nc2)CC1 (single isomer, unassigned) [Example 55, 6-(3-Fluorophenyl)-N-{4-[(2-methoxyethyl)amino]cyclohexyl}nicotinamide]
30.6	O=C(NC1CCC(NC2CCOC2)CC1)c1ccc(-c2cccc(F)c2)nc1 (single isomer, unassigned) [Example 56, 6-(3-Fluorophenyl)-N-[-4-(tetrahydrofuran-3-ylamino)cyclohexyl]nicotinamide]
32	O=C(NC1CCC(NC2CCOC2)CC1)c1ccc(-c2cccc(F)c2)nc1 (single isomer, unassigned) [Example 57, 6-(3-Fluorophenyl)-N-[-4-(tetrahydrofuran-3-ylamino)cyclohexyl]nicotinamide]
307	COCCN(C)C1CCC(NC(=O)c2ccc(-c3cccc(F)c3)nc2)CC1 (single isomer, unassigned) [Example 58, 6-(3-Fluorophenyl)-N-{4-[(2-methoxyethyl)(methyl)amino]cyclohexyl}nicotinamide]
30.5	COCCN(C)C1CCC(NC(=O)c2ccc(-c3cccc(F)c3)nc2)CC1 (single isomer, unassigned) [Example 59, 6-(3-Fluorophenyl)-N-{4-[(2-methoxyethyl)(methyl)amino]cyclohexyl}nicotinamide]
111	O=C(NC1CCC(N2CC[C@@H](O)C2)CC1)c1ccc(-c2cccc(F)c2)nc1 (single isomer, unassigned) [Example 60]
45	O=C(NC1CCC(N2CC[C@@H](O)C2)CC1)c1ccc(-c2cccc(F)c2)nc1 (single isomer, unassigned) [Example 61]
